Measured values from patent publication US20160282364A1, “ASSAY FOR INSULIN-DEGRADING ENZYME (IDE) INHIBITORS” (PRESIDENT AND FELLOWS OF HARVARD COLLEGE, priority 2013, published 2016).
“Also recorded” adds a separate entry of the source.

How the values were obtained:
[1] = Plasma pharmacokinetics by isotope dilution mass spectrometry; format: in vivo, mouse; conditions: 80 mg/kg
Procedure: Purified macrocycle inhibitors were dissolved in DMSO-d6 ( 200 to 250 mg/mL stock solutions). […] The inhibitor concentration was calculated using the integral of the CH2Cl2 singlet (δ 5.76 ppm, 2H)^57, which appears in an uncluttered region of these spectra^51,58. For injectable formulations (10 mL/kg i.p. injection volume), the macrocycle inhibitor solution in DMSO-d6 (200-250 mg/mL, based on free-base molecular weight) was combined with 1:20 w/w Captisol® powder (CyDex)^59. The resulting slurry was supplemented with DMSO-d6 to make up to 5% of the final formulation volume, mixed thoroughly and dissolved with sterile saline solution (0.9% NaCl). Vehicle controls were identically formulated with 5% DMSO-d6 and equal amount of Captisol®. The formulated solutions of inhibitor were clear with no visible particles, and were stored overnight at 4° C. prior to injection. Stable isotope dilution LC-MS, pharmacokinetics, and tissue distribution measurements. […] Tissue samples ( 100 mg) fromb 6K-treated mice and vehicle controls were weighed and disrupted in Dounce homogenizers with PBS buffer (0.5 mL/100 mg sample), supplemented with 5 μM heavy-6bK and protease inhibitor cocktail (1 tablet/50 mL PBS, Roche diagnostics). The lysate was incubated on ice for 30 min, sonicated 5 min and centrifuged at 13,000 g for 5 min. The bulk of supernatant proteins were precipitated by denaturation at 95° C. for 5 min, removed by centrifugation.

Wild-type mice = assay: Pyruvate tolerance test (PTT); format: in vivo, mouse; conditions: vs controls
Procedure: Blood collection and plasma hormone measurements. Blood was collected in EDTA-coated tubes (BD Microtainer®) from trunk bleeding (˜500 μL) after CO2-euthanasia for all hormone assays. The plasma was immediately separated from red blood cells by centrifugation 10 min at 1800 g, aliquoted, frozen over dry ice and stored at −80° C. […] Values are reported as mean±S.E.M. Statistics were performed using a two-tail Student's t-test, and significance levels shown in the figures are *p<0.05 versus vehicle control group or **p<0.01 versus vehicle control group.
RT-PCR analysis of liver gluconeogenesis markers phosphoenolpyruvate carboxykinase (PEPCK) and glucose-6-phosphatase (G6Pase). Total RNA was isolated from liver samples (˜100 mg) using TRIzol® reagent (Invitrogen, 1 mL/100 mg sample), followed by spin-column purification (RNeasy® kit, Qiagen) and on-column DNAse treatment (Qiagen) according to the manufacturer's instructions. RNA concentrations were determined by UV spectrophotometry (NanoDrop). One microgram of total RNA was used for reverse transcription with oligo(dT) primers (SuperScript® III First-Strand Synthesis SuperMix, Life Technologies) according to the manufacturer's instructions. Quantitative PCR reactions included 1 μL of cDNA diluted 1:100, 0.4 μM primers, 2× SYBR Green PCR Master Mix (Invitrogen) in 25 μL total volume, and were read out by a CFX96TM Real-Time PCR Detection System (BioRad). Transcript levels were determined using two known primer pairs^18,19 for each gene of interest (Table 6), which were normalized against tubulin and beta-actin transcripts (ΔΔCT method), and expressed relative to the lowest sample. Duplicate control assays without reverse transcriptase treatment were run for each RNA preparation and primer set used. Statistics were performed using a two-tail Student's t-test, and significance levels shown in the figures are *p<0.05 versus vehicle control group or **p<0.01 versus vehicle control group.

IDE [2] = biological target: T1, IDE (Homo sapiens, UniProt P14735); assay: Protease assay with fluorogenic peptide substrate Mca-[…](Dnp)-OH (IDE species not given); format: biochemical; design: The proteases IDE42-1019, recombinant human IDE42-1019 (R&D Systems); conditions: IDE
T1 sequence (P14735 42-1019): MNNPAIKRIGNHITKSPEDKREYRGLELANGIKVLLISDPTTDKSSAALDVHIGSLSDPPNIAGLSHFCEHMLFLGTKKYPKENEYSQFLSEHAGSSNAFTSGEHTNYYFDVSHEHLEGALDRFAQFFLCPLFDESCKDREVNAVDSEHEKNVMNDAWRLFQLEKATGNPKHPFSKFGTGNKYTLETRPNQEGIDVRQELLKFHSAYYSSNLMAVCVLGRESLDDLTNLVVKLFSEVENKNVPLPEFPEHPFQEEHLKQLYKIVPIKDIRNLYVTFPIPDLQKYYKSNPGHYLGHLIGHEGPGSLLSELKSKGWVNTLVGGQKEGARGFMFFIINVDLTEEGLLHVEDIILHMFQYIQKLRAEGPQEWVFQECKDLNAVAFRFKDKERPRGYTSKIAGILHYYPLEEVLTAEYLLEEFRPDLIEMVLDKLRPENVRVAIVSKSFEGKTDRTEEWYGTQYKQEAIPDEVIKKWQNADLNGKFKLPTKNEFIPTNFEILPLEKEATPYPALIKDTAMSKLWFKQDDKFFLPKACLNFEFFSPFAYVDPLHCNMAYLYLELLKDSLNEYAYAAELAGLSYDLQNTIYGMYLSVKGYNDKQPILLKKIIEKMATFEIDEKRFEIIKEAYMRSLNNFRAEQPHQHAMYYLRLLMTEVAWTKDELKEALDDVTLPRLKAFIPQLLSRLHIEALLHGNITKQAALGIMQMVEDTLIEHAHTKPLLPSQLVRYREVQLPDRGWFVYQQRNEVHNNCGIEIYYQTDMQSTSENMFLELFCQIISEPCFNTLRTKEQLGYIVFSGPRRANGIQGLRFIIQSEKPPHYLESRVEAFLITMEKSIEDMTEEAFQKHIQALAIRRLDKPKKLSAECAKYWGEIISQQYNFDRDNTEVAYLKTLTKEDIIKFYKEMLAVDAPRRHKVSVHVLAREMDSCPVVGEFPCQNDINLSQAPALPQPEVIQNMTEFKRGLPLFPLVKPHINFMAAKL
Procedure: (§1) All data points and error bars represent mean±SEM. Significance tests were performed using two-tail Student's t-test, and significance levels shown in the figures are p<0.05 (*) or p<0.01 (**) versus the vehicle-only control group. The in vitro selection of the DNA-templated macrocycle libraryl^16,17 used 20 μg His6-tagged mouse IDE immobilized on cobalt magnetic beads (Dynabeads, Invitrogen). IDE proteolytic activity was assayed with fluorogenic peptide Mca-[…](Dnp)-OH (R&D). IDE inhibition was confirmed using an anti-insulin antibody time-resolved FRET assay (Cysbio), and using an LCMS assay for CGRP cleavage fragments CGRP1-17 and CGRP18-37 in plasma^18. […] Protease assays with fluorogenic peptide substrates. […] (R&D). All assay data points were obtained in duplicate.

IDE [3] = biological target: T1, IDE; assay: Protease assay with fluorogenic peptide substrate Mca-[…](Dnp)-OH; format: biochemical; design: recombinant human IDE42-1019 (R&D Systems); purchased R&D Systems
Procedure: as §1

| Structure (SMILES) | plasma concentration relative to IC50 for mouse IDE ([1]; 30 min post-injection) [fold] | time at which plasma levels were detectable post-injection ([1]; mouse, in vivo, ip) [min] | time plasma levels maintained at a detectable level ([1]; mouse, in vivo, ip) | plasma glucagon (Wild-type mice; 60 min post-PTT, pyruvate 2.0 g/kg i.p.) | expression of liver gluconeogenic markers (Wild-type mice; 60 min post-PTT) | plasma insulin levels (Wild-type mice; 60 min post-PTT) | blood glucose during the PTT (Wild-type mice; pyruvate 2.0 g/kg i.p.) | IC50 (IDE [2]) [nM] | IC50 (IDE [3]) [nM] |
| --- | --- | --- | --- | --- | --- | --- | --- | --- | --- |
| NCCCC[C@@H]1NC(=O)/C=C/C(=O)N[C@H](C(N)=O)CCCCNC(=O)[C@@H](Cc2ccc(C(=O)c3ccccc3)cc2)NC(=O)[C@H](CC2CCCCC2)NC1=O [Compound 6bK] | ~1000 | 5 | at least 4 h | significantly elevated | increased; also recorded: elevated | similar | significantly lower | 50 |  |
| NC(=O)CCC1NC(=O)C=CC(=O)NC(C(N)=O)CCCCNC(=O)C(Cc2ccc(C(=O)c3ccccc3)cc2)NC(=O)C(CC2CCCCC2)NC1=O (stereo not drawn) [Compound 6b] |  |  |  |  |  |  |  |  | 60 |
